In ChEMBL document CHEMBL3217463, “Design, synthesis and biological evaluation of -lactam hydroxamate based TACE inhibitors” (Medchemcomm, 2011):
One block for each compound: values may come before it.

Key:
Blood = test: Antiinflammatory activity in human whole blood assessed as inhibition of LPS-induced TNFalpha secretion by ELISA; format: functional, tissue-based
Rattus norvegicus [1] = test: Toxicity in Wistar rat assessed as total bilirubin at 100 mg/kg, po bid for 28 days (reference value: 0.14 +/- 0.01 mg/dL); format: organism-based; parameters: dose 100 mg/kg, route oral; conditions: in vivo, 672 h
Rattus norvegicus [2] = test: Toxicity in Wistar rat assessed as alanine aminotransferase at 100 mg/kg, po bid for 28 days (reference value: 20.78 +/- 1.31 U/L); format: organism-based; parameters: dose 100 mg/kg, route oral; conditions: in vivo, 672 h
Rattus norvegicus [3] = test: Toxicity in Wistar rat assessed as aspartate aminotransferase at 100 mg/kg, po bid for 28 days (reference value: 147.16 +/- 11.75 U/L); format: organism-based; parameters: dose 100 mg/kg, route oral; conditions: in vivo, 672 h
Rattus norvegicus [4] = test: Toxicity in Wistar rat assessed as alkaline phosphatase at 100 mg/kg, po bid for 28 days (reference value: 134.66 +/- 5.3 U/L); format: organism-based; parameters: dose 100 mg/kg, route oral; conditions: in vivo, 672 h
Rattus norvegicus [5] = test: Toxicity in Wistar rat assessed as RBC count at 100 mg/kg, po bid for 28 days (reference value: 7.38 +/- 0.11 10^6/ul); format: organism-based; parameters: dose 100 mg/kg, route oral; conditions: in vivo, 672 h
Rattus norvegicus [6] = test: Toxicity in Wistar rat assessed as WBC count at 100 mg/kg, po bid for 28 days (reference value: 8.20 +/- 0.33 10^3/ul); format: organism-based; parameters: dose 100 mg/kg, route oral; conditions: in vivo, 672 h
[7] = biological target: T1, Disintegrin and metalloproteinase domain-containing protein 17 (Homo sapiens, UniProt P78536); test: Inhibition of human catalytic domain of TACE assessed as inhibit the cleavage of the substrate by fluorescence-based FRET assay
[8] = biological target: T2, Disintegrin and metalloproteinase domain-containing protein 10 (Homo sapiens, UniProt O14672); test: Inhibition of ADAM10 (unknown origin) using fluorescent substrate by fluorescence-based FRET assay
T2 sequence (O14672 whole entry): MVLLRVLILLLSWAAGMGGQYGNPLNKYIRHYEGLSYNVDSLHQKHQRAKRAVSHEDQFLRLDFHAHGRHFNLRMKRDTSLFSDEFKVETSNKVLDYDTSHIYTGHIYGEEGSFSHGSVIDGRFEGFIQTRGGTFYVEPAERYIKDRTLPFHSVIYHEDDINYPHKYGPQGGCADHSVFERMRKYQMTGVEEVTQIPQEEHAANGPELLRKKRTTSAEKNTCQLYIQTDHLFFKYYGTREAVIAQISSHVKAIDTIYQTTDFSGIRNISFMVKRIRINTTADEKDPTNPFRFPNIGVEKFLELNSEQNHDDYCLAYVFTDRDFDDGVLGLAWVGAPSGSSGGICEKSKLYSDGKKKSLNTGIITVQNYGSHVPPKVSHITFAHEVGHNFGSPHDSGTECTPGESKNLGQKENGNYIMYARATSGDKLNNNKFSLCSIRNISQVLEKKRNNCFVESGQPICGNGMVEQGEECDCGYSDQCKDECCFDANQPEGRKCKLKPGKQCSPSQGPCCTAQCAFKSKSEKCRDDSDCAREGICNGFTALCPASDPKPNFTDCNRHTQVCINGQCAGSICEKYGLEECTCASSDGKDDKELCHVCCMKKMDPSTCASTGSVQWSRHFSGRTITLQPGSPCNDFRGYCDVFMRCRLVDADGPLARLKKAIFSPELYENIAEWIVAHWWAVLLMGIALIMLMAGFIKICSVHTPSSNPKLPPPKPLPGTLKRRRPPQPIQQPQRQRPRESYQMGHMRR

Interstitial collagenase = biological target: T3, Interstitial collagenase (Homo sapiens, UniProt P03956); test: Inhibition of MMP1 (unknown origin) by fluorescence-based FRET assay
T3 sequence (P03956 whole entry): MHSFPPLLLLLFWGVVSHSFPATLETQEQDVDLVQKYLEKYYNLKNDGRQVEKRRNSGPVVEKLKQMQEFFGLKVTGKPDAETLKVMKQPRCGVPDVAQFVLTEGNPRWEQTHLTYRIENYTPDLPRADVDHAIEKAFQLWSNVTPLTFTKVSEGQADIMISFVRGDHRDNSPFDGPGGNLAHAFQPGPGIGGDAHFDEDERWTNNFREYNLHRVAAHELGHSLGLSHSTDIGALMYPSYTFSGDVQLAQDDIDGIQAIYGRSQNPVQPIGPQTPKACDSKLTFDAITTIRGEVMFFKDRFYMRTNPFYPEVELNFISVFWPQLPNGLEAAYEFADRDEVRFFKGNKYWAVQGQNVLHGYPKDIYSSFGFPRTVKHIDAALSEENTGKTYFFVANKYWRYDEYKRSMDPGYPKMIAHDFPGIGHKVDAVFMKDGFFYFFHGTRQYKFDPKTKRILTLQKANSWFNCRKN

[9] = biological target: 72 kDa type IV collagenase (Homo sapiens, UniProt P08253); test: Inhibition of MMP2 (unknown origin) by fluorescence-based FRET assay
Stromelysin-1 = Stromelysin-1 (Homo sapiens, UniProt P08254); test: Inhibition of MMP3 (unknown origin) by fluorescence-based FRET assay
Matrilysin = biological target: T4, Matrilysin (Homo sapiens, UniProt P09237); test: Inhibition of MMP7 (unknown origin) by fluorescence-based FRET assay
T4 sequence (P09237 whole entry): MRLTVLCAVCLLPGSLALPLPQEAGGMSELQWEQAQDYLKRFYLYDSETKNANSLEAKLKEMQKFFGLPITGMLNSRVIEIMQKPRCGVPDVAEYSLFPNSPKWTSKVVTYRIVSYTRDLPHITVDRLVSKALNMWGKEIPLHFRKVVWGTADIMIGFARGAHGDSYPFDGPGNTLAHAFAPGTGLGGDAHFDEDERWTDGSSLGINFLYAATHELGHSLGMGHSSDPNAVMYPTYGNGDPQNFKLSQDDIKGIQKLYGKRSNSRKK

Neutrophil collagenase = Neutrophil collagenase (Homo sapiens, UniProt P22894); test: Inhibition of MMP8 (unknown origin) by fluorescence-based FRET assay
[10] = biological target: Matrix metalloproteinase-9 (Homo sapiens, UniProt P14780); test: Inhibition of MMP9 (unknown origin) by fluorescence-based FRET assay
Collagenase 3 = Collagenase 3 (Homo sapiens, UniProt P45452); test: Inhibition of MMP13 (unknown origin) by fluorescence-based FRET assay
[11] = biological target: Matrix metalloproteinase-14 (Homo sapiens, UniProt P50281); test: Inhibition of MMP14 (unknown origin) by fluorescence-based FRET assay
[12] = biological target: T1, Disintegrin and metalloproteinase domain-containing protein 17; test: Ratio of IC50 for human catalytic domain of TACE to IC50 for ADAM10 (unknown origin)
Mus musculus = test: Antiinflammatory activity in po dosed Swiss Albino mouse assessed as inhibition of LPS-induced TNFalpha secretion in blood treated 0.5 hrs before LPS and measured after 1 hr of LPS stimulus by ELISA; format: functional
[13] = Half life in Wistar rat at 5 mg/kg, iv; format: ADME, organism-based; parameters: dose 5 mg/kg, route intravenous; conditions: in vivo
[14] = Elimination rate constant in Wistar rat at 5 mg/kg, iv; format: ADME, organism-based; parameters: dose 5 mg/kg, route intravenous; conditions: in vivo
[15] = AUC in Wistar rat at 5 mg/kg, iv; format: ADME, organism-based; parameters: dose 5 mg/kg, route intravenous; conditions: plasma
[16] = Tmax in Wistar rat at 5 mg/kg, po; format: ADME, organism-based; parameters: dose 5 mg/kg, route oral; conditions: in vivo
[17] = Half life in Wistar rat at 5 mg/kg, po; format: ADME, organism-based; parameters: dose 5 mg/kg, route oral; conditions: Wistar, in vivo
[18] = Elimination rate constant in Wistar rat at 5 mg/kg, po; format: ADME, organism-based; parameters: dose 5 mg/kg, route oral; conditions: Wistar, in vivo
[19] = AUC in Wistar rat at 5 mg/kg, po; format: ADME, organism-based; parameters: dose 5 mg/kg, route oral; conditions: plasma
[20] = Oral bioavailability in Wistar rat at 5 mg/kg; format: ADME, organism-based; conditions: in vivo
Rattus norvegicus [21] = test: Toxicity in Wistar rat assessed as survival at 100 mg/kg, po bid for 28 days; format: organism-based; parameters: dose 100 mg/kg, route oral; conditions: in vivo, 672 h
Rattus norvegicus [22] = test: Toxicity in Wistar rat assessed as adverse changes at 100 mg/kg, po bid for 28 days; format: organism-based; parameters: dose 100 mg/kg, route oral; conditions: in vivo, 672 h
Rattus norvegicus [23] = test: Toxicity in Wistar rat assessed as body weight at 100 mg/kg, po bid for 28 days; format: organism-based; parameters: dose 100 mg/kg, route oral; conditions: in vivo, 672 h
Rattus norvegicus [24] = test: Toxicity in Wistar rat assessed as food consumption at 100 mg/kg, po bid for 28 days; format: organism-based; parameters: dose 100 mg/kg, route oral; conditions: in vivo, 672 h
Rattus norvegicus [25] = test: Toxicity in Wistar rat assessed as relative heart weight at 100 mg/kg, po bid for 28 days (reference value: 0.345 +/- 0.007 %); format: organism-based; parameters: dose 100 mg/kg, route oral; conditions: in vivo, 672 h
Rattus norvegicus [26] = test: Toxicity in Wistar rat assessed as relative liver weight at 100 mg/kg, po bid for 28 days (reference value: 3.659 +/- 0.1 %); format: organism-based; parameters: dose 100 mg/kg, route oral; conditions: in vivo, 672 h
Rattus norvegicus [27] = test: Toxicity in Wistar rat assessed as relative kidney weight at 100 mg/kg, po bid for 28 days (reference value: 0.821 +/- 0.03 %); format: organism-based; parameters: dose 100 mg/kg, route oral; conditions: in vivo, 672 h
Rattus norvegicus [28] = test: Toxicity in Wistar rat assessed as relative spleen weight at 100 mg/kg, po bid for 28 days (reference value: 0.201+/- 0.007 %); format: organism-based; parameters: dose 100 mg/kg, route oral; conditions: in vivo, 672 h
Rattus norvegicus [29] = test: Toxicity in Wistar rat assessed as relative brain weight at 100 mg/kg, po bid for 28 days (reference value: 0.727+/- 0.024 %); format: organism-based; parameters: dose 100 mg/kg, route oral; conditions: in vivo, 672 h

T1 sequence (P78536 whole entry, the tested form may be a part): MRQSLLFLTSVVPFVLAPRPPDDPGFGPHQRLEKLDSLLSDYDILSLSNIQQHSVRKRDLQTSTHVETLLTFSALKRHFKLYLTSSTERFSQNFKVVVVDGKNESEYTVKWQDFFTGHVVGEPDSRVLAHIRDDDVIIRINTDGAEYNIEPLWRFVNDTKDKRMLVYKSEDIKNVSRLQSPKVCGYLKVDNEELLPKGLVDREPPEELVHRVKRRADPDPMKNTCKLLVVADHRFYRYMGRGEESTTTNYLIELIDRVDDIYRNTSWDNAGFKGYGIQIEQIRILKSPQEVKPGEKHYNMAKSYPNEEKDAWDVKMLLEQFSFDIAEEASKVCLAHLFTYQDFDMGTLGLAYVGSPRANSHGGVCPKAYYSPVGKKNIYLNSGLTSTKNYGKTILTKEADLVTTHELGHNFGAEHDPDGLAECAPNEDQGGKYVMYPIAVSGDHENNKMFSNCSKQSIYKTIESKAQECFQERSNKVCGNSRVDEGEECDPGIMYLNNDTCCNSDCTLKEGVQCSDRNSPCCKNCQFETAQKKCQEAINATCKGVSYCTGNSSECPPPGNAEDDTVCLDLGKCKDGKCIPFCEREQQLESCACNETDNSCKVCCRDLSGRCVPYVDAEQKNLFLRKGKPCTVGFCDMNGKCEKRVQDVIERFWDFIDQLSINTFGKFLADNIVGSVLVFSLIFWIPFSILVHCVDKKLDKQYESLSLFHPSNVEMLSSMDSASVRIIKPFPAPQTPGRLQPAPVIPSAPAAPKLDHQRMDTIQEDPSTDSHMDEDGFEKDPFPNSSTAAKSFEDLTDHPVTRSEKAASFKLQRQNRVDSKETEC
Chain of Matrix metalloproteinase-9 (P14780 whole entry): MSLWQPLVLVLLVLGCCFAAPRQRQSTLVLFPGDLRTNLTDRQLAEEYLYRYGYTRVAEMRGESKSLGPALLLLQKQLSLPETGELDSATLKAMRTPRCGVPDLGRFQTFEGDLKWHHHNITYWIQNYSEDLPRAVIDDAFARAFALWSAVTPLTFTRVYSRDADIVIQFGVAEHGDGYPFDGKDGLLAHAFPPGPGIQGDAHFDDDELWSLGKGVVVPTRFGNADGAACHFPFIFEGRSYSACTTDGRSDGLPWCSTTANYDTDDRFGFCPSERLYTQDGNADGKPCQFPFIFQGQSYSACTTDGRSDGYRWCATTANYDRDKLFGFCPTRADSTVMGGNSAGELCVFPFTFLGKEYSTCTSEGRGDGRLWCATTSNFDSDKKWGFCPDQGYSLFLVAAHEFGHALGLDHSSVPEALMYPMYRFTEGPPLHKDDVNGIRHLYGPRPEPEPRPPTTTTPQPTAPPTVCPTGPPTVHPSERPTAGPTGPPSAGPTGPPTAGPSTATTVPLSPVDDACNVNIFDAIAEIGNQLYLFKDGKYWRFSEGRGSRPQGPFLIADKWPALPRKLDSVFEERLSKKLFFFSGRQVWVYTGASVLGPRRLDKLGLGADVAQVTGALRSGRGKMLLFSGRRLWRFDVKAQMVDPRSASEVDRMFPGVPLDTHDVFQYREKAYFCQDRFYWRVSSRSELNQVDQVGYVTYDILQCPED
Chain of Neutrophil collagenase (P22894 whole entry): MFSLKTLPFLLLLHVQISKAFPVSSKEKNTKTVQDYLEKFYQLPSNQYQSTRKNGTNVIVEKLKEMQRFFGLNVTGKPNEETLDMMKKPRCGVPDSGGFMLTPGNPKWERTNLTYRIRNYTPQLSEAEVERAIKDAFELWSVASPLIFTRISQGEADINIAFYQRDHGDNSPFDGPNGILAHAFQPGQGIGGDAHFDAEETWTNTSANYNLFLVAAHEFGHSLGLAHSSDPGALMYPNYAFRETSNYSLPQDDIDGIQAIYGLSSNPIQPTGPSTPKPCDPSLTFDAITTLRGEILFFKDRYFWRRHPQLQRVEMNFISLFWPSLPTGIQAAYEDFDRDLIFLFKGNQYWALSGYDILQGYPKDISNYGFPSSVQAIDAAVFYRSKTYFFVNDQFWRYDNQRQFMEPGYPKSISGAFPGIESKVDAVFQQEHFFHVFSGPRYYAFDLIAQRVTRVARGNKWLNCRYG
Chain of 72 kDa type IV collagenase (P08253 whole entry): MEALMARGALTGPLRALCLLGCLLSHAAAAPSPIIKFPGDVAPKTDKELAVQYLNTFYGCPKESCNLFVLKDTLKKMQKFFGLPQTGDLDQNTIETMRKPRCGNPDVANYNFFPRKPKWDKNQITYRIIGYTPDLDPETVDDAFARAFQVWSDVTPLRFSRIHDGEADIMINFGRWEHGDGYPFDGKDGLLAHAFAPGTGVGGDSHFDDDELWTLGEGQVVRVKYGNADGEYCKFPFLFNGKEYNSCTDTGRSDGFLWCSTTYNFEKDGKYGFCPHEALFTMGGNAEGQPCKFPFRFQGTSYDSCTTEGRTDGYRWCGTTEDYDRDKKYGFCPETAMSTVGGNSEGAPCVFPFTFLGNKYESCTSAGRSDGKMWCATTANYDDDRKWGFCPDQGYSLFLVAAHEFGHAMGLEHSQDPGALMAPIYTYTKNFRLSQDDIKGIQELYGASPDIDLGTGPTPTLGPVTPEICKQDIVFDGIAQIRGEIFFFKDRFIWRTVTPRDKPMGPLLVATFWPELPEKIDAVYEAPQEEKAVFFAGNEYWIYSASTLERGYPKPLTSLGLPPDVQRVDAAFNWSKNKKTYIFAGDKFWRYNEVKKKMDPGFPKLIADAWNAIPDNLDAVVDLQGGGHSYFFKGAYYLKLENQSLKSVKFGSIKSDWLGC
Chain of Stromelysin-1 (P08254 whole entry): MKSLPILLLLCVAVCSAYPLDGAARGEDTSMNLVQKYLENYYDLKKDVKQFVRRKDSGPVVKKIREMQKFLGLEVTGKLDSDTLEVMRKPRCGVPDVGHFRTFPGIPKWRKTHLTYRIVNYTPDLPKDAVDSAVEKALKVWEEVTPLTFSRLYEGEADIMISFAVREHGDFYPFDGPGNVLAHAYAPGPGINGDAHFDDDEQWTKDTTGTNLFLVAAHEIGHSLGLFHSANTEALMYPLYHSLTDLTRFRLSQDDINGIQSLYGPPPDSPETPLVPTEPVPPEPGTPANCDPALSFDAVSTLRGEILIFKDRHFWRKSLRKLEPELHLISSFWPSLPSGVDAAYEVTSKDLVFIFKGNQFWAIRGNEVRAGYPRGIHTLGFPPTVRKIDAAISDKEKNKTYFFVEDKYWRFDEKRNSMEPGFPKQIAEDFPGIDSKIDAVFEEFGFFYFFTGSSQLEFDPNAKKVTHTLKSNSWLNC

SMILES: COc1ccc(-c2cc(COc3ccc([C@]4(N)CCN([C@H](CC(C)C)C(=O)NO)C4=O)cc3)c3ccccc3n2)cc1
- IC50 (Blood): 250 nM

SMILES: CC(C)C[C@H](C(=O)NO)N1CC[C@@](N)(c2ccc(OCc3cc(-c4ccc(Cl)cc4)nc4ccccc34)cc2)C1=O
- IC50 (Blood): 286 nM

SMILES: COc1cc(COc2ccc([C@]3(N)CCN([C@H](CC(C)C)C(=O)NO)C3=O)cc2)c2ccccc2n1
- IC50 (Blood): 401 nM

SMILES: CC(C)C[C@H](C(=O)NO)N1CC[C@@](N)(c2ccc(OCc3cc(C4CCCCC4)nc4ccccc34)cc2)C1=O
- IC50 (Blood): 177 nM

SMILES: Cc1cc(COc2ccc([C@]3(N)CCN([C@H](CC(C)C)C(=O)NO)C3=O)cc2)c2ccccc2n1
- Activity (Rattus norvegicus [1]): 0.79 mg/dL
- Activity (Rattus norvegicus [2]): 39.22 U/L
- Activity (Rattus norvegicus [3]): 457.21 U/L
- Activity (Rattus norvegicus [4]): 523.43 U/L
- IC50 (Blood): 60 nM
- Activity (Rattus norvegicus [5]): 7.69 ×10⁶ /uL
- Activity (Rattus norvegicus [6]): 8.99 ×10³ /uL
- IC50 [7]: 12 nM
- IC50 [8]: 480 nM
- IC50 (Interstitial collagenase): 429 nM
- IC50 [9]: 482 nM
- IC50 (Stromelysin-1): 285 nM
- IC50 (Matrilysin): 466 nM
- IC50 (Neutrophil collagenase): 299 nM
- IC50 [10]: 389 nM
- IC50 (Collagenase 3): 461 nM
- IC50 [11]: 499 nM
- Ratio IC50 [12]: 40
- ED50 (Mus musculus): 6.9 mg/kg
- half-life [13]: 2.69 h
- k el [14]: 8.33e-05 s⁻¹
- AUC [15]: 32400 ng·h/mL
- Tmax [16]: 1.21 h
- half-life [17]: 8.67 h
- k el [18]: 2.22e-05 s⁻¹
- AUC [19]: 5970 ng·h/mL
- bioavailability [20]: 18.4%
- Activity (Rattus norvegicus [21]): Non-toxic
- Activity (Rattus norvegicus [22]): Non-toxic
- Activity (Rattus norvegicus [23]): Non-toxic
- Activity (Rattus norvegicus [24]): Non-toxic
- Activity (Rattus norvegicus [25]): 0.351%
- Activity (Rattus norvegicus [26]): 4.993%
- Activity (Rattus norvegicus [27]): 0.831%
- Activity (Rattus norvegicus [28]): 0.211%
- Activity (Rattus norvegicus [29]): 0.714%

SMILES: CC(C)C[C@H](C(=O)NO)N1CC[C@@](N)(c2ccc(OCc3cc(-c4ccc(OCc5ccccc5)cc4)nc4ccccc34)cc2)C1=O
- IC50 (Blood): 4000 nM

SMILES: CC(C)C[C@H](C(=O)NO)N1CC[C@@](N)(c2ccc(OCc3cc(-c4ccccc4)nc4ccccc34)cc2)C1=O
- IC50 (Blood): 3060 nM

SMILES: CC(C)C[C@H](C(=O)NO)N1CC[C@@](N)(c2ccc(OCc3cc(C(F)(F)F)nc4ccccc34)cc2)C1=O
- IC50 (Blood): 470 nM

More lines, in order of falling IC50 (Blood), values ahead:

- IC50 (Blood): 140 nM
SMILES: CC(C)C[C@H](C(=O)NO)N1CC[C@@](N)(c2ccc(OCc3cc(C(C)C)nc4ccccc34)cc2)C1=O

- IC50 (Blood): 123 nM
SMILES: CC(C)C[C@H](C(=O)NO)N1CC[C@@](N)(c2ccc(OCc3cc(COC(C)C)nc4ccccc34)cc2)C1=O

- IC50 (Blood): 111 nM
SMILES: CCc1cc(COc2ccc([C@]3(N)CCN([C@H](CC(C)C)C(=O)NO)C3=O)cc2)c2ccccc2n1
